Data on three compounds can be found in PMC4507179, “Insights into the key interactions between human protein phosphatase 5 and cantharidin using molecular dynamics and site-directed mutagenesis bioassays” (Scientific Reports, 2015).

Numbering of substitutions follows the chain as printed.

One experiment has as its target T1, HuPP5 R100A (Homo sapiens, UniProt P53041, R275A).
T1 construct: 6xHis (N); made in house; host or cells: Escherichia coli BL21(DE3)pLysS, pET43.1b
T1 sequence (P53041 1-499 R275A): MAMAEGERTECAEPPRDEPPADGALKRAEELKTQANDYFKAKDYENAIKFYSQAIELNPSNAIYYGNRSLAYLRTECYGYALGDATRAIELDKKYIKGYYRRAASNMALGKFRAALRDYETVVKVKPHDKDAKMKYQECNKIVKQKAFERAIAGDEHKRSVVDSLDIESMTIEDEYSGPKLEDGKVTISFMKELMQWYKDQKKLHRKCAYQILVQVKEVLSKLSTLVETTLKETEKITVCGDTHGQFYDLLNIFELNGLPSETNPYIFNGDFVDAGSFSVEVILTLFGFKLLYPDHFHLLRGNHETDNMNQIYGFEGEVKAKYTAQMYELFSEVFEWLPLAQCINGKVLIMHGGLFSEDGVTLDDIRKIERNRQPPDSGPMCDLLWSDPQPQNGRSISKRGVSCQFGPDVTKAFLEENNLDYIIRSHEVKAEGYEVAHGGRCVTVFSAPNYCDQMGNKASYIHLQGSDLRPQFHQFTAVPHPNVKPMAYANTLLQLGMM
Put plainly: Inhibition of recombinant HuPP5 mutant R100A (p-NPP substrate). Type of experiment: biochemical. The following applies: for IC50: recombinant HuPP5 R100A, p-NPP, mean ± S.D., three independent experiments; for ΔΔGbind-exp, R100A: ΔΔGbind = RTln(IC50 mutant/IC50 wild-type). An excerpt:
(§1) A PCR-based site-directed mutagenesis approach was used to change Arg 100 to Ala (R100A), His 129 to Ala (H129A), and Arg 225 to Ala (R225A). All recombinant enzymes were soluble, expressed in E. coli and purified to homogeneity (>90% pure) (Figure S9). […] However, their inhibitory activity was suppressed against the three individually site-directed mutagenesis HuPP5: R100A, H129A, and R225A (Table S7). H129A appears to be most unfavorable to the binding of these inhibitors due to the highest IC50 values (>10 mM). […]
(§2) Site-directed mutagenesis. The sequence encoding the ORF of Human PP5 (HuPP5) was isolated from the liver cancer cell line SMMC-7721 by PCR using primers that introduced a Nde I site and 6xHis tag at the forward one, and a Xho I site at the reverse one. The PCR products were cloned into pCR2.1 (Invitrogen, Carlsbad, CA, USA) and transformed into DH5α (TaKaRa, Dalian, China) and then sequenced (AuGCT, Inc., Beijing, China). The mutants were generated using the QuikChange® site-directed mutagenesis kit (Stratagene, La Jolla, CA, USA) following the instruction manual. The mutagenic primers were designed based on the sequence of wild-type […]
(§3) The mutants were sequenced to confirm the presence of the desired mutations and the lack of undesired mutations.
(§4) Protein expression and purification. The wild-type and mutants HuPP5 were then cloned into the corresponding sites of pET43.1b (Novagen, Madison, WI, USA) and transformed into Escherichia coli BL21(DE3)pLysS (Novagen, Madison, WI, USA). Proteins were expressed in LB (also on this page, place not known: scan ning. T he Cβ -H Cβ -Cγ. energ y tantbinding mu wildtypeG G G −−ΔΔ =Δ −Δ tantbinding muG −Δ binding wildtypeG −Δ binding re spectively. bindingGΔΔ binding (Invitrogen , USA ) site -directed (Stratagene , USA ) wild -type S 5. purification . s ites (Novagen , USA )) […]
(§5) (Luria-Bertani) broth (containing 2 mM MnCl2, 100 μg/ml ampicillin and 34 μg/ml chloramphenicol) and induced with 0.1 mM IPTG (isopropyl β-thiogalactoside) for 24 h at 18 ℃.
(§6) Cells were harvested by centrifugation (8,000 g for 10 min at 4 ℃) and were lysed by sonication in buffer A (20 mM Tris-HCl, pH=8.0, 4 mM MnCl2, 300 mM NaCl) containing 20 mM imidazole, 0.1% β-mercaptoethanol, 1.0 mg/ml lysozyme and 1 mM PMSF. After centrifugation for 20 min at 20,000 g at 4 ℃, the supernatant was loaded to a buffer A pre-equilibrated Ni-NTA affinity column (Transgen, Beijing, China) to bind the 6xHis tagged protein. The reduction of non-specific interactions between the extract proteins and the matrix was achieved by washing the Ni-NTA resins with buffer B (20 mM Tris-HCl, pH=8.0, 300 mM NaCl, 1 mM EGTA, 0.1% β-mercaptoethanol, 4 mM MnCl2) containing 20 mM imidazole. Elution was then conducted using 150 mM imidazole in buffer B. The eluted HuPP5 fractions were pooled and dialyzed against buffer C (buffer B + 50% glycerol) overnight. Dialyzed samples were subjected to 12% SDS-PAGE and stained with Coomassie blue. Protein concentrations were determined using a BCA Protein Assay Kit (Pierce, Thermo Scientific, Rockford, IL, USA).
(§7) Enzymatic assays and inhibition studies. Phosphatase activity was measured using p-NPP (p-nitrophenyl phosphate) as substrate. Assays were performed in a 200 μL reaction containing 500 ng protein and assay buffer (20 mM p-NPP in 20 mM Tris (pH 7.4), 100 μM arachidonic acid, 1 mM EGTA, 0.1% β-mercaptoethanol and 0.1% ethanol). The reaction was initiated by adding the p-NPP and incubated at 35 ℃ for 10 min. Control reactions were assayed without enzyme.
(§8) Assays were terminated by addition of 200 μL of 5 N NaOH. Sample absorbance was measured at A410 using the TECANTM Infinite® 200 PRO multimode micro-plate reader after subtracting the appropriate background. Kinetic parameters were determined by using the Michaelis-Menten […]
(§9) plot analysis of data obtained under the assay conditions as mentioned above with the addition of […]

Another experiment concerns the target T2, HuPP5 H129A (Homo sapiens, UniProt P53041, H304A).
T2 construct: 6xHis (N); made in house; host or cells: Escherichia coli BL21(DE3)pLysS, pET43.1b
T2 sequence (P53041 1-499 H304A): T1 sequence (P53041 1-499 R275A) with A275R, H304A
Put plainly: Inhibition of recombinant HuPP5 mutant H129A (p-NPP substrate). The format is biochemical. As to conditions: for IC50: recombinant HuPP5 H129A, p-NPP; for ΔΔGbind-exp, H129A: ΔΔGbind = RTln(IC50 mutant/IC50 wild-type).
Description: as §1, §2, §3, §4, §5, §6, §7, §8, §9

The target in another experiment is T3, HuPP5 R225A (Homo sapiens, UniProt P53041, R400A).
T3 construct: 6xHis (N); made in house; host or cells: Escherichia coli BL21(DE3)pLysS, pET43.1b
T3 sequence (P53041 1-499 R400A): T1 sequence (P53041 1-499 R275A) with A275R, R400A
Put plainly: Inhibition of recombinant HuPP5 mutant R225A (p-NPP substrate). Type of experiment: biochemical. As to conditions: for IC50: recombinant HuPP5 R225A, p-NPP, mean ± S.D., three independent experiments; for ΔΔGbind-exp, R225A: ΔΔGbind = RTln(IC50 mutant/IC50 wild-type).
Description: as §1, §2, §3, §4, §5, §6, §7, §8, §9

The target in experiment [1] is T4, recombinant wild-type HuPP5 (Homo sapiens, UniProt P53041).
T4 construct: 6xHis (N); made in house; host or cells: Escherichia coli BL21(DE3)pLysS, pET43.1b
T4 sequence (P53041 1-499): T1 sequence (P53041 1-499 R275A) with A275R
Put plainly: Inhibition of recombinant wild-type HuPP5 phosphatase activity (p-NPP substrate). The format is biochemical. As to conditions: mean ± S.D., three independent experiments. As to the method: The structures for the manganese-containing systems (Figure S2) were taken from the Research Collaboration for Structural Bioinformatics protein database (RCSB Protein Data Bank, PDB ID: 3H63; 3H61; 3H64)[22], and all the structures were visualized using pymol 1.3 r1 edu. Manganese-related force field parameters were determined using Seminario’s method. Atomic single charge was calculated using the restrained electrostatic potential (RESP) fitting protocol. The Quantum Mechanics (QM) and Molecular Mechanics (MM) vibrational frequencies were compared to check the quality of the force field parameters. We performed three individual 50 ns MD at different seeds for each system. All MD simulations were performed with the AMBER12 package. All MD results were analyzed with the Ambertools13 package based on three individual 50 ns MD trajectories, and the data were averaged. Molecular Mechanics-Poisson-Boltzmann Surface Area (MM-PBSA)[32] calculations were performed on 1000 snapshots exacted from 40 ~ 50 ns production trajectories with a time interval of 10 ps to estimate the binding free energy. Since only the catalytic domain was used in the simulations, the starting point in our constructed structure corresponds to the 176th residue in the reference structure. […] The IC50 values of the three compounds against all HuPP5 proteins were calculated from the dose-dependent inhibition assay. […]
Cells were harvested by centrifugation (8,000 g for 10 min at 4 ℃) and were lysed by sonication in buffer A (20 mM Tris-HCl, pH=8.0, 4 mM MnCl2, 300 mM NaCl) containing 20 mM imidazole, 0.1% β-mercaptoethanol, 1.0 mg/ml lysozyme and 1 mM PMSF. […] Protein concentrations were determined using a BCA Protein Assay Kit (Pierce, Thermo Scientific, Rockford, IL, USA).
Enzymatic assays and inhibition studies. Phosphatase activity was measured using p-NPP (p-nitrophenyl phosphate) as substrate. […]

The subject of another experiment is PP5. Set-up: method as in PMID 17200551, PMID 19025735, PMID 20331621. The following applies: read-out: relative IC50 value against PP5; cited from earlier work.

As a reminder, the IC50 is the concentration at which inhibition is half-maximal. On to `O=C(O)[C@@H]1[C@H](C(=O)O)[C@H]2CC[C@@H]1O2` [Endothall, endothall], for which, on HuPP5 R100A, the IC50 was 18.4 ± 0.39 µM and the “ΔΔGbind-exp, R100A” value amounted to 0.99 kcal/mol. At HuPP5 H129A, the IC50 is over 10000 µM and the “ΔΔGbind-exp, H129A” value is over 4.83 kcal/mol. For the same compound, the “IC50 on R225A higher than that of cantharidin” value on HuPP5 R225A (ratio of IC50 values on HuPP5 R225A, versus cantharidin) is recorded as 48.54 fold. For the same compound, at HuPP5 R225A (ratio of IC50 values on HuPP5 R225A, versus norcantharidin), the “IC50 on R225A higher than that of norcantharidin” value was found to be 6.47 fold. At HuPP5 R225A, the IC50 stood at 1060 ± 63.7 µM and the “ΔΔGbind-exp, R225A” value is reported as 3.46 kcal/mol. Also, in experiment [1], the 50% inhibitory concentration (IC50) came to 3.64 µM.

`O=C1OC(=O)[C@H]2[C@@H]1[C@@H]1CC[C@H]2O1` [Norcantharidin, norcantharidin]: at HuPP5 R100A, the half-inhibitory concentration (IC50) stood at 17.8 ± 1.44 µM and the “ΔΔGbind-exp, R100A” value amounted to 0.88 kcal/mol. Further, at HuPP5 H129A, the IC50 was over 10000 µM and the “ΔΔGbind-exp, H129A” value was over 4.75 kcal/mol. For the same compound, at HuPP5 R225A, the half-inhibitory concentration (IC50) was 164 ± 9.84 µM and the “ΔΔGbind-exp, R225A” value is 2.24 kcal/mol. In addition, the IC50 in experiment [1] is 4.18 µM.

Regarding `C[C@@]12C(=O)OC(=O)[C@]1(C)[C@H]1CC[C@@H]2O1` [Cantharidin, cantharidin], the IC50 was 4.05 ± 0.34 µM at HuPP5 R100A; over 10000 µM on HuPP5 H129A; 21.9 ± 1.12 µM on HuPP5 R225A; 0.82 µM in experiment [1]; 0.6 µM with PP5. At HuPP5 R100A, the “ΔΔGbind-exp, R100A” value came out at 0.97 kcal/mol. On HuPP5 H129A, the “ΔΔGbind-exp, H129A” value is recorded as over 5.74 kcal/mol. Besides, the “ΔΔGbind-exp, R225A” value on HuPP5 R225A worked out at 2.03 kcal/mol.
